Experimental data published in publication PMC10916400, “Effect of the aggregated protein dye YAT2150 on Leishmania parasite viability” (Antimicrobial Agents and Chemotherapy, 2024).

Key:
[1] = Human microsomal stability assay; type: in vitro ADME; conditions: 37°C
Method: The following components were added in a 96-well microplate in a final volume of 500 µL 50 mM Na/K phosphate buffer, pH 7.4 (stock solutions are indicated in parentheses, dissolved in the same buffer unless otherwise specified): […] NADP (10 mM), 10 µM glucose 6-phosphate (100 mM), […] glucose 6-phosphate dehydrogenase (40 U/mL, dissolved in 5 mM sodium citrate), 3 µM MgCl2·6 H2O (30 mM, dissolved in H2O), 0.8 mg protein/mL of human microsomes (10 mg/mL protein; XenoTech), and 1 µM of test compound (100 µM, dissolved in ACN). Plates were incubated at 37°C and 75 µL samples were taken at 0, 10, 20, 40, and 60 min, to which 75 µL ACN + internal standard (Rolipram) to inactivate the microsomes and 30 µL of 0.5% formic acid in H2O to improve the chromatographic conditions were added, and kept at 4°C. When all the samples were taken, the plate was centrifuged at 46,000 × g for 30 min at 15°C, and UPLC-MS/MS was performed as above, except for the time in 100% B from 1 to 2.5 min, the return to 95% A:5% B from 2.5 to 2.6 min, and the maintenance of this ratio from 2.6 to 3.0 min. Metabolic stability was calculated from the logarithm of the remaining compound at each of the times evaluated.

in vitro [2] = type: cell-based; conditions: human umbilical vein endothelial cells, 48 h
Method: Human umbilical vein endothelial cells were maintained in M-199 supplemented with 10% fetal bovine serum (FBS) and 1% penicillin-streptomycin at 37°C, 5% CO2, and seeded in 96-well plates at a density of 50,000 cells/mL. After allowing cell adherence for 24 h, the medium was removed, and drugs or nanoformulations were added in M-199 supplemented with 1% penicillin-streptomycin. Plates were incubated for 48 h, and then, the medium in each well was replaced by 100 µL of M-199 containing penicillin-streptomycin and 0.00125% resazurin sodium salt (Sigma-Aldrich Corporation). Plates were incubated for 4 h, and resorufin fluorescence emission was measured (λex/em: 535/590 nm) in a Tecan Infinite 200 PRO equipment (Tecan Trading AG).

in vitro [3] = type: in vitro ADME; conditions: 37°C
Method: Plates (96-well Polypropylene Deep Well Plate; Corning Inc., Somerville, MA, US) containing 100 µL of 5 µM compounds in human plasma (Seralab, Granollers, Spain), pooled from healthy donors and extracted in citrate tubes, were incubated at 37°C for different times (0, 60, 120, and 360 min). Then, 300 µL ACN was added to precipitate plasma protein, and the plate was centrifuged at 4000 × g for 60 min at 4°C. For sample quantification, the resulting supernatant was taken and analyzed by ultra performance liquid chromatography with tandem mass spectrometry (UPLC-MS/MS; ACQUITY Xevo TQD UPLC QSM; Waters) in an ACQUITY BEH C18 column (1.7 µm, 2.1 × 50 mm; Waters). As mobile phase (0.6 mL/min flow rate) was used the following gradient of 0.1% formic acid in water (A) or in ACN (B): 95% A:5% B from 0 to 0.1 min, gradual increase to 100% B from 0.1 to 1 min, maintenance in 100% B from 1 to 2 min, return to 95% A:5% B from 2 to 2.1 min, and maintenance of this ratio from 2.1 to 2.5 min. Compound concentrations were calculated from the MS peak areas.

[4] = Solubility screen assay (nephelometry); type: physicochemical; conditions: PBS with 1% DMSO; read-out: Aqueous solubility
Method: The stock solutions (10^‒2 M) of the assayed compounds were diluted to decreased molarity, from 300 μM to 0.1 µM, in a 384-well transparent plate (Greiner Bio-One, Madrid, Spain) with DMSO:PBS (1:99 vol/vol). After 2 h of incubation at 37°C, the plate was read in a NEPHELOstar Plus nephelometer (BMG LABTECH GmbH, Ortenberg, Germany) at 635 nm. The results were adjusted to a segmented regression to obtain the maximum concentration at which the compounds were soluble.

[5] = Caco-2 permeability assay; type: in vitro ADME; conditions: human
Method: (§1) Caco-2 cells (ATCC under the license of Abcam Inc., doing business as NaviCyte Scientific, Berkeley, CA) cultured to confluency were trypsinized and seeded onto a filter transwell insert (high-throughput screening Transwell 96-well permeable supports; Corning Inc.) at a density of ~10,000 cells/well in Dulbecco’s modified Eagle’s medium (DMEM). Confluent cells were subcultured at passages 58–62 and grown in a humidified atmosphere of 5% CO2 at 37°C. Following an overnight attachment period (24 h after seeding), the cell medium was replaced every other day with fresh medium in both the apical and basolateral compartments. The cell monolayers were used for transport studies 21 days post-seeding, when monolayer integrity was checked by measuring the transepithelial electrical resistance (TEER). If TEER values were ≥500 Ω/cm^2, the medium was removed and the cells were washed twice with pre-warmed (37°C) Hank’s Balanced Salt Solution (HBSS). Compound stock solutions were made in DMSO and further diluted in HBSS (1% final DMSO concentration). All compounds, including controls (colchicine, E3S), were tested at a final concentration of 5 to 10 µM. For A → B directional transport, the donor working solution was added to the apical compartment (A) and HBSS as receiver working solution to the basolateral compartment (B). For B → A directional transport, the donor working solution was added to B and HBSS as receiver working solution to A. The cells were incubated at 37°C for 120 min with gentle stirring. At the end of the incubation, samples were taken from both donor and receiver compartments and transferred into 384-well plates, and compound concentrations were determined by UPLC-MS/MS analysis as for the plasma stability assay.

Caco-2 cells = assay: Caco-2 permeability assay; type: in vitro ADME; conditions: Caco-2, A→B, 37°C
Method: as §1

## CCN(CC)c1ccc(/C=C/c2cc[n+](CCCCCCCCCC[n+]3ccc(/C=C/c4ccc(N(CC)CC)cc4)c(C)c3)cc2C)cc1 [YAT2150]
[1]; human microsomes
  t1/2, microsomal stability: 1.34 h
[1]; human, microsomes, pH 7.4, human microsomes, after 1 h
  remaining at 1 h, 1 µM: 55%
[1]; human, microsomes, pH 7.4, human microsomes, read-out: t1/2, microsomal stability
  half-life at 1 µM: 1.33 h
[1]; pH 7.4, human microsomes
  microsomal CLint at 1 µM: 10.6 µL/min/mg
In vitro [2]
  CC50: 3.4 ± 0.5 µM
In vitro [3]; human plasma, after 6 h
  % remaining, plasma stability: 91.3%
In vitro [3]; human, plasma, after 1 h, read-out: % remaining, plasma stability
  remaining at 1 h, 5 µM: 100%
In vitro [3]; human, plasma, after 2 h, read-out: % remaining, plasma stability
  remaining at 2 h, 5 µM: 99.7%
In vitro [3]; human, plasma, after 6 h, read-out: % remaining, plasma stability
  remaining at 6 h, 5 µM: 91%
[4]
  solubility at 2 h: 8.5 µM
[5]; Caco-2, Caco-2, A→B, 37°C
  Papp A→B at 120 min: > 20 ×10⁻⁶ cm/s
[5]; Caco-2, Caco-2, B→A, 37°C
  Papp B→A at 120 min: ~10 ×10⁻⁶ cm/s
[5]; Caco-2, Papp BA/Papp AB
  efflux ratio at 120 min: 0.48
Caco-2 cells
  Papp AB: 20.76 ± 2.01 ×10⁻⁶ cm/s
